Measured values: ChEMBL document CHEMBL5500389, “Discovery of the Selective and Orally Available Galectin-1 Inhibitor GB1908 as a Potential Treatment for Lung Cancer” (J Med Chem, 2024)
Active and inactive are the calls of the source. No cut-off for these calls is given here.

How the values were obtained:
[1] = Apparent permeability across basal to apical side in human Caco-2 cells at 10 uM incubated for 90 mins by LC-MS/MS analysis
Galectin-1 [2] = target: T1, Galectin-1 (Homo sapiens, UniProt P09382); assay: Binding affinity to human galectin-1 assessed as dissociation constant by fluorescein probe based fluorescence polarization assay
T1 sequence (P09382 whole entry): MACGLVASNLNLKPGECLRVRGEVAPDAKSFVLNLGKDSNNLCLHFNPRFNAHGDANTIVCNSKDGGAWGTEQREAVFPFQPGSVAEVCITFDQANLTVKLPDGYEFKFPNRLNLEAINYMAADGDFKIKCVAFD

physchem = settings: octanol/potassium phosphate buffer, pH 7.4
[3] = Efflux ratio of apparent permeability across apical to basal side over basal to apical side in human Caco-2 cells at 10 uM incubated for 90 mins by LC-MS/MS analysis
[4] = Apparent permeability across apical to basal side in human Caco-2 cells at 10 uM incubated for 90 mins by LC-MS/MS analysis
Galectin-3 [5] = target: T2, Galectin-3 (Homo sapiens, UniProt P17931); assay: Binding affinity to human galectin-3 assessed as dissociation constant by competitive fluorescence polarization assay
T2 sequence (P17931 whole entry): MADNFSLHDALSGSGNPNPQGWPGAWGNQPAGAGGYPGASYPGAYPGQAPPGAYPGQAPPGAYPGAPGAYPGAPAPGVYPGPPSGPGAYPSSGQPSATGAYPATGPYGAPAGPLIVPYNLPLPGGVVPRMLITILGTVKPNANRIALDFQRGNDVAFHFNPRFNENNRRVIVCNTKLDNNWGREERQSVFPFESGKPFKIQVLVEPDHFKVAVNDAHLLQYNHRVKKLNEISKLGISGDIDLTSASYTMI

Galectin-3 [6] = target: T3, Galectin-3 (Mus musculus, UniProt P16110); assay: Binding affinity to mouse galectin-3 assessed as dissociation constant by competitive fluorescence polarization assay
T3 sequence (P16110 whole entry): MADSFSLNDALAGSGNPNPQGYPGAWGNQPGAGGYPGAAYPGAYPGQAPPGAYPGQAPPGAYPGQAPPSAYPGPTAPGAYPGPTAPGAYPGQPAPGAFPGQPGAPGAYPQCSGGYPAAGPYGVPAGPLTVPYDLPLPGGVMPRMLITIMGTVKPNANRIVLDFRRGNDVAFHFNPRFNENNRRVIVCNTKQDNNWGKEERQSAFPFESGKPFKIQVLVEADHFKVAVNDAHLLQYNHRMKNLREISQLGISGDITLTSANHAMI

Galectin-1 [7] = target: T1, Galectin-1; assay: Binding affinity to human galectin-1 assessed as dissociation constant by competitive fluorescence polarization assay
[8] = Volume of distribution at steady state in C57BL/6 mouse at 1 mg/kg, iv measured for 24 hrs by HPLC analysis; type: ADME, organism-based; settings: in vivo, read-out: Vdss
[9] = Cmax in C57BL/6 mouse at 30 mg/kg, po measured for 24 hrs by HPLC analysis; type: ADME, organism-based; settings: in vivo
[10] = Unbound fraction in human plasma at 1 uM incubated for 5 hrs by equilibrium dialysis method; type: ADME, cell-free
Galectin-9 [11] = target: T4, Galectin-9 (Homo sapiens, UniProt O00182); assay: Inhibition of N-terminal human galectin-9 by competitive fluorescence polarization assay
T4 sequence (O00182 whole entry): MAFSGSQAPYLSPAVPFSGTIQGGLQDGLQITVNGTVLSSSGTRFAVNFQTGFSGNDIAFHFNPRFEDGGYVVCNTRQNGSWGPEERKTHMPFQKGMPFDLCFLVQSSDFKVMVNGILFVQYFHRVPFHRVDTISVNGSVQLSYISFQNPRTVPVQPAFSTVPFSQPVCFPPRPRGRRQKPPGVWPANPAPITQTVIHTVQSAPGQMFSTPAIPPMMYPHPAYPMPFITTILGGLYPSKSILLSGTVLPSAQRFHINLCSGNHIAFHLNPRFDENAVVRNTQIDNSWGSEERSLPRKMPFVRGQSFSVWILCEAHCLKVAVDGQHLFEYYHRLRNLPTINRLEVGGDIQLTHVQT

Galectin-7 = Galectin-7 (Homo sapiens, UniProt P47929); assay: Inhibition of human galectin-7 by competitive fluorescence polarization assay
Sequence of Galectin-7 (P47929 whole entry): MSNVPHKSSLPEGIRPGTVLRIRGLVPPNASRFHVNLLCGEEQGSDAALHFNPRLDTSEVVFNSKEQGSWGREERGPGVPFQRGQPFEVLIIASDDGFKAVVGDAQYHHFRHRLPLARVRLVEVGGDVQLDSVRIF

Galectin-8 [12] = target: T5, Galectin-8 (Homo sapiens, UniProt O00214); assay: Inhibition of N-terminal human galectin-8 by competitive fluorescence polarization assay
T5 sequence (O00214 whole entry): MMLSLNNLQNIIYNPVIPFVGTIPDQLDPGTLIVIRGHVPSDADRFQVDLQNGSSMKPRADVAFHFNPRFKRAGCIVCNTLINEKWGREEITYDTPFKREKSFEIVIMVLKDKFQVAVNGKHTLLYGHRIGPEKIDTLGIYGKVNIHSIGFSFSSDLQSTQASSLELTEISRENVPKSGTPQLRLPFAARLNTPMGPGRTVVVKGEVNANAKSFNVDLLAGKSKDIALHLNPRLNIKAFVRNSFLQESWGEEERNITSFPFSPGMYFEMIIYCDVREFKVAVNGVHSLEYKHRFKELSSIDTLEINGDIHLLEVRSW

Galectin-1 [13] = target: T6, Galectin-1 (Mus musculus, UniProt P16045); assay: Binding affinity to CM3 chip-immobilized full-length mouse galectin-1 assessed as dissociation constant by SPR analysis
T6 sequence (P16045 whole entry): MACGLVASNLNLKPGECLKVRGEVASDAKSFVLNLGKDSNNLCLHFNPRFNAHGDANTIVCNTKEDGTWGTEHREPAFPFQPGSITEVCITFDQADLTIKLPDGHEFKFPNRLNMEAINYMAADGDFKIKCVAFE

Galectin-1 [14] = target: T1, Galectin-1; assay: Binding affinity to CM3 chip-immobilized full-length human galectin-1 assessed as dissociation constant by SPR analysis
[15] = Tmax in C57BL/6 mouse at 30 mg/kg, po measured for 24 hrs by HPLC analysis; type: ADME, organism-based; settings: in vivo
[16] = Oral bioavailability in C57BL/6 mouse at 30 mg/kg measured for 24 hrs by HPLC analysis; type: ADME, organism-based; settings: in vivo
Lewis lung carcinoma [17] = assay: Antitumor activity against mouse LL2 cells allografted in syngeneic mouse C57BL/6N assessed as reduction in tumor volume at 30 mg/kg, po bid administered via gavage measured after 10 days; type: functional, organism-based; settings: time 10.0 day
Galectin-9 [18] = target: T4, Galectin-9; assay: Inhibition of C-terminal human galectin-9 by competitive fluorescence polarization assay
Galectin-3 [19] = target: T2, Galectin-3; assay: Binding affinity to CM3 chip-immobilized full-length human galectin-3 assessed as dissociation constant by SPR analysis
Jurkat [20] = assay: Inhibition of apoptosis in galectin-3-induced human Jurkat cells measured after 16 hrs by caspase-3/7 green fluorescence based analysis
[21] = Stability in human hepatocytes assessed as hepatic intrinsic clearance at 2 uM measured per million cells for 15 to 120 mins by LC-MS/MS analysis; type: ADME, cell-based, Hepatocyte; settings: time 15-120 min, read-out: CLH
Galectin-3 [22] = target: T3, Galectin-3; assay: Binding affinity to CM3 chip-immobilized full-length mouse galectin-3 assessed as dissociation constant by SPR analysis
Galectin-3 [23] = target: T2, Galectin-3; assay: Inhibition of human galectin-3 by competitive fluorescence polarization assay
Lewis lung carcinoma [24] = assay: Antitumor activity against mouse LL2 cells allografted in syngeneic mouse C57BL/6N assessed as inhibition of tumor growth at 30 mg/kg, po bid administered via gavage measured for 3 to 21 days; type: functional, organism-based; settings: time 3-21 day
Galectin-1 [25] = target: T6, Galectin-1; assay: Binding affinity to mouse galectin-1 assessed as dissociation constant by fluorescein probe based fluorescence polarization assay
[26] = Stability in mouse hepatocytes assessed as hepatic intrinsic clearance at 2 uM measured per million cells for 15 to 120 mins by LC-MS/MS analysis; type: ADME, cell-based, Hepatocyte; settings: time 15-120 min, read-out: CLH
Galectin-8 [27] = target: T5, Galectin-8; assay: Inhibition of C-terminal human galectin-8 by competitive fluorescence polarization assay
Galectin-4 [28] = target: T7, Galectin-4 (Homo sapiens, UniProt P56470); assay: Inhibition of N-terminal human galectin-4 by competitive fluorescence polarization assay
T7 sequence (P56470 whole entry): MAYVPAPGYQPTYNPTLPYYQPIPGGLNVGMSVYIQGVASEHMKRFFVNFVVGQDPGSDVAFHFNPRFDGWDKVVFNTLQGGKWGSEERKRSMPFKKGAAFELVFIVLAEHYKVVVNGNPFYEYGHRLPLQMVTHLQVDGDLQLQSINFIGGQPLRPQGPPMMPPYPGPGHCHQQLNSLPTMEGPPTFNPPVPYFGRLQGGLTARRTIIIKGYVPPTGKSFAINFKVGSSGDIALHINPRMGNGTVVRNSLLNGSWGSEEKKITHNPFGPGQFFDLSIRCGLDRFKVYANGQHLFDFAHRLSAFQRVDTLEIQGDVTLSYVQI

[29] = Clearance in C57BL/6 mouse at 1 mg/kg, iv measured for 24 hrs by HPLC analysis; type: ADME, organism-based; settings: in vivo
A549 = assay: Cytotoxicity against human A549 cells assessed as reduction in cell viability at >90 uM by MTT assay relative to control; type: functional
Jurkat [30] = assay: Inhibition of apoptosis in galectin-1-induced human Jurkat cells measured after 16 hrs by caspase-3/7 green fluorescence based analysis
[31] = AUC (infinity) in C57BL/6 mouse at 30 mg/kg, po measured for 24 hrs by HPLC analysis; type: ADME, organism-based; settings: in vivo
[32] = Unbound fraction in mouse plasma at 1 uM incubated for 5 hrs by equilibrium dialysis method; type: ADME, cell-free
Galectin-3 [33] = target: T3, Galectin-3; assay: Binding affinity to mouse galectin-3 assessed as dissociation constant by fluorescein probe based fluorescence polarization assay
Galectin-4 [34] = target: T7, Galectin-4; assay: Inhibition of C-terminal human galectin-4 by competitive fluorescence polarization assay

Nc1csc(-c2cn([C@@H]3[C@@H](O)[C@@H](Sc4cc(Cl)c(F)c(Cl)c4)O[C@H](CO)[C@@H]3O)nn2)n1
Papp B→A at 1.5 h, 10 µM [1]: 42 ×10⁻⁶ cm/s
Kd (Galectin-1 [2]): 620 nM
logD at 1 h (physchem): 2.5
efflux ratio at 1.5 h, 10 µM [3]: 14
Papp A→B at 1.5 h, 10 µM [4]: 3.1 ×10⁻⁶ cm/s

OC[C@H]1O[C@@H](S[C@@H]2O[C@H](CO)[C@H](O)[C@H](n3cc(-c4csc(O)n4)nn3)[C@H]2O)[C@H](O)[C@@H](n2cc(-c3cc(F)c(F)c(F)c3)nn2)[C@H]1O
Kd (Galectin-3 [5]): 1 nM
Kd (Galectin-3 [6]): 34 nM
Kd (Galectin-1 [7]): 4 nM

OC[C@H]1O[C@H](Sc2cc(Cl)c(F)c(Cl)c2)[C@H](O)[C@@H](n2cc(-c3csc(O)n3)nn2)[C@H]1O
Papp B→A at 1.5 h, 10 µM [1]: 35 ×10⁻⁶ cm/s
Kd (Galectin-1 [2]): 80 nM
logD at 1 h (physchem): 2.8
efflux ratio at 1.5 h, 10 µM [3]: 117
Papp A→B at 1.5 h, 10 µM [4]: 0.3 ×10⁻⁶ cm/s

COc1nc(-c2cn([C@@H]3[C@@H](O)[C@@H](Sc4cc(Cl)c(F)c(Cl)c4)O[C@H](CO)[C@@H]3O)nn2)cs1
Papp B→A at 1.5 h, 10 µM [1]: 61 ×10⁻⁶ cm/s
Kd (Galectin-1 [2]): 1580 nM
efflux ratio at 1.5 h, 10 µM [3]: 5
Papp A→B at 1.5 h, 10 µM [4]: 12 ×10⁻⁶ cm/s

CNc1nc(-c2cn([C@@H]3[C@@H](O)[C@@H](Sc4cc(Cl)c(F)c(Cl)c4)O[C@H](CO)[C@@H]3O)nn2)cs1
Papp B→A at 1.5 h, 10 µM [1]: 46 ×10⁻⁶ cm/s
Kd (Galectin-1 [2]): 1360 nM
logD at 1 h (physchem): 2.9
efflux ratio at 1.5 h, 10 µM [3]: > 192
Papp A→B at 1.5 h, 10 µM [4]: < 0.24 ×10⁻⁶ cm/s

CN(C)c1nc(-c2cn([C@@H]3[C@@H](O)[C@@H](Sc4cc(Cl)c(F)c(Cl)c4)O[C@H](CO)[C@@H]3O)nn2)cs1
Papp B→A at 1.5 h, 10 µM [1]: 52 ×10⁻⁶ cm/s
Kd (Galectin-1 [2]): 3430 nM
logD at 1 h (physchem): 3.8
efflux ratio at 1.5 h, 10 µM [3]: 87
Papp A→B at 1.5 h, 10 µM [4]: 0.6 ×10⁻⁶ cm/s

CO[C@@H]1[C@@H](n2cc(-c3csc(O)n3)nn2)[C@@H](O)[C@@H](CO)O[C@@H]1Sc1ccc(Cl)c(Cl)c1
Vd [8]: 0.4 L/kg
Cmax [9]: 19500 ng/mL
fraction unbound at 5 h, 1 µM [10]: 0.005
Kd (Galectin-9 [11]): 18600 nM
Papp B→A at 1.5 h, 10 µM [1]: 48 ×10⁻⁶ cm/s
Kd (Galectin-7): 92700 nM
Kd (Galectin-8 [12]): 80600 nM
Kd (Galectin-1 [13]): 90 nM
Kd (Galectin-1 [14]): 80 nM
Tmax [15]: 2 h
logD at 1 h (physchem): 3.2
bioavailability [16]: > 99.9%
Activity (Lewis lung carcinoma [17]): Active
Kd (Galectin-9 [18]): 17500 nM
Kd (Galectin-3 [19]): 20500 nM
IC50 (Jurkat [20]): > 8000 nM
hepatocyte CLint at 2 µM [21]: < 1.5 µL/min/1e6 cells
Kd (Galectin-3 [22]): 8200 nM
Kd (Galectin-3 [23]): 6000 nM
inhibition (Lewis lung carcinoma [24]): Active
Kd (Galectin-1 [25]): 72 nM
hepatocyte CLint at 2 µM [26]: < 1.5 µL/min/1e6 cells
Kd (Galectin-8 [27]): 92400 nM
Kd (Galectin-4 [28]): 15000 nM
clearance [29]: 3.7 mL/min/kg
Activity (A549): 48%
Papp A→B at 1.5 h, 10 µM [4]: 4 ×10⁻⁶ cm/s
IC50 (Jurkat [30]): 850 nM
AUC(0-inf) [31]: 148 µg·h/mL
fraction unbound at 5 h, 1 µM [32]: 0.007
Kd (Galectin-3 [33]): 4200 nM
Kd (Galectin-4 [34]): 460 nM
